Experimental findings from patent publication US11713335B2, “Aminocoumarin compounds and methods of their use” (President and Fellows of Harvard College, priority 2018, dated 2023) are described below.

Converted amounts (≈) assume the structure as drawn. Read-outs that look alike come from different tables or passages of the source.

Format in all cases: cell-based
The subject of one assay is E. cloacae 13047. Kind of assay: Minimal inhibitory concentration, E. cloacae 13047. The settings on record: 16 hour minimal inhibitory concentration at 37° C., read-out: MIC (μM) E. cloacae 13047. In outline: (§1)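 Broth microdilution, 2-fold series from DMSO stock; inoculum = saturated overnight culture (LB; TSA for S. aureus) diluted 1:100 then 1:100. 37 °C, 16 h, no shaking. OD600 read-out; MIC = lowest conc. inhibiting growth (µM).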

Another assay concerns A. baumannii 19606. Kind of assay: Minimal inhibitory concentration, A. baumannii 19606. The note with it: 16 hour minimal inhibitory concentration at 37° C., read-out: MIC (μM) A. baumannii 19606. In outline: as §1
The subject of a further assay is K. pneumoniae 700721. Kind of assay: Minimal inhibitory concentration, K. pneumoniae 700721. The note with it: 16 hour minimal inhibitory concentration at 37° C., read-out: MIC (μM) K. pneumoniae 700721. In outline: as §1
The next assay deals with S. aureus RN4220. Kind of assay: Minimal inhibitory concentration, S. aureus RN4220. The settings on record: 16 hour minimal inhibitory concentration at 37° C., read-out: MIC (μM) S. aureus RN4220. In outline:
as §1

A further assay concerns E. coli 25922. Kind of assay: Minimal inhibitory concentration, E. coli 25922. The settings on record: 16 hour minimal inhibitory concentration at 37° C., read-out: MIC (μM) E. coli 25922. In outline:
as §1

Another assay has as its system E. coli MC4100. Nature of the assay: Minimal inhibitory concentration, E. coli MC4100. The note with it: 16 hour minimal inhibitory concentration at 37° C., read-out: MIC (μM) E. coli MC4100 ara+. In outline: as §1
Another assay deals with S. aureus MW2. Kind of assay: Minimal inhibitory concentration, S. aureus MW2. The note with it: 16 hour minimal inhibitory concentration at 37° C., read-out: MIC (μM) S. aureus MW2 (MRSA). In outline:
as §1

The mark [1] stands for this setting: Acinetobacter baumannii, 19606, 16 h.
Where [2] appears, read: Staphylococcus aureus, RN4220, 16 h.
The mark [3] stands for this setting: Staphylococcus aureus, MRSA, 16 h.

The MIC is the least concentration at which growth counts as inhibited. Consider `CO[C@@H]1[C@@H](OC(N)=O)[C@@H](O)[C@H](Oc2ccc3c(OCC4CO4)c(NC(=O)c4ccc(O)c(CC=C(C)C)c4)c(=O)oc3c2C)OC1(C)C` (stereo partly drawn) [Compound 217], for which the MIC in the assay on E. cloacae 13047 (Enterobacter cloacae, 13047) was greater than 100 µM; in the assay with A. baumannii 19606 (setting [1]), greater than 50 µM; with K. pneumoniae 700721 (Klebsiella pneumoniae, 700721) it was greater than 100 µM; with S. aureus RN4220 (setting [2]) it was 19 µM (≈ 12.7 µg/mL); with E. coli 25922 (Escherichia coli, 25922, 16 h), greater than 200 µM; in the assay with E. coli MC4100 (Escherichia coli, MC4100, 16 h), greater than 200 µM. The MIC in the assay on S. aureus MW2 (setting [3]) came out at 9 µM (≈ 6.02 µg/mL).

With `CO[C@@H]1[C@@H](OC(N)=O)[C@@H](O)[C@H](Oc2ccc3c(OCCCO)c(NC(=O)c4ccc(O)c(CC=C(C)C)c4)c(=O)oc3c2C)OC1(C)C` [Compound 216], the MIC was greater than 100 µM in the assay with E. cloacae 13047 (Enterobacter cloacae, 13047); greater than 50 µM in the assay with A. baumannii 19606 (setting [1]); greater than 100 µM with K. pneumoniae 700721 (Klebsiella pneumoniae, 700721); 19 µM (≈ 12.7 µg/mL) in the assay on S. aureus RN4220 (setting [2]); greater than 200 µM with E. coli 25922 (Escherichia coli, 25922, 16 h); greater than 200 µM in the assay with E. coli MC4100 (Escherichia coli, MC4100, 16 h). For the same compound, the MIC in the assay with S. aureus MW2 (setting [3]) is 19 µM (≈ 12.7 µg/mL).

As to `CO[C@@H]1[C@@H](OC(N)=O)[C@@H](O)[C@H](Oc2ccc3c(O)c(NC(=O)c4ccc(O)c(C/C=C/CCC(=O)O)c4)c(=O)oc3c2C)OC1(C)C` [Compound 203], the MIC was greater than 100 µM in the assay on E. cloacae 13047 (Enterobacter cloacae, 13047); greater than 50 µM with A. baumannii 19606 (setting [1]); greater than 100 µM in the assay on K. pneumoniae 700721 (Klebsiella pneumoniae, 700721); greater than 100 µM in the assay on S. aureus RN4220 (setting [2]); greater than 200 µM in the assay on E. coli 25922 (Escherichia coli, 25922, 16 h); greater than 200 µM in the assay with E. coli MC4100 (Escherichia coli, MC4100, 16 h). Besides, the MIC in the assay on S. aureus MW2 (setting [3]) is greater than 100 µM.

Consider `CO[C@@H]1[C@@H](O)[C@@H](OC(=O)NC2CCCCC2)[C@H](Oc2ccc3c(O)c(NC(=O)c4ccc(O)c(CC=C(C)C)c4)c(=O)oc3c2C)OC1(C)C` [Compound 110], for which the MIC was greater than 100 µM with E. cloacae 13047; greater than 50 µM in the assay with A. baumannii 19606; greater than 100 µM in the assay with K. pneumoniae 700721; greater than 100 µM with S. aureus RN4220; greater than 200 µM with E. coli 25922; greater than 200 µM in the assay with E. coli MC4100. In addition, in the assay on S. aureus MW2, the MIC was greater than 100 µM.

As for `CO[C@@H]1[C@@H](OC(N)=O)[C@@H](O)[C@H](Oc2ccc3c(O)c(NC(=O)c4ccc(I)c(Oc5ccccc5)c4)c(=O)oc3c2C)OC1(C)C` [Compound 252], the MIC in the assay on E. cloacae 13047 (Enterobacter cloacae, 13047) is greater than 100 µM; with A. baumannii 19606 (setting [1]) it was greater than 50 µM; in the assay on K. pneumoniae 700721 (Klebsiella pneumoniae, 700721), 38 µM (≈ 28.4 µg/mL); in the assay on S. aureus RN4220 (setting [2]), 2.3 µM (≈ 1.72 µg/mL); in the assay with E. coli 25922 (Escherichia coli, 25922, 16 h), 33 µM (≈ 24.6 µg/mL); with E. coli MC4100 (Escherichia coli, MC4100, 16 h), 17 µM (≈ 12.7 µg/mL). The MIC in the assay with S. aureus MW2 (setting [3]) amounted to 2 µM (≈ 1.49 µg/mL).

In the case of `COc1ccc(C(=O)Nc2c(O)c3ccc(O[C@@H]4OC(C)(C)[C@H](OC)[C@@H](OC(N)=O)[C@H]4O)c(C)c3oc2=O)cc1Oc1ccccc1` [Compound 256], the MIC in the assay on E. cloacae 13047 (Enterobacter cloacae, 13047) is greater than 100 µM; in the assay with A. baumannii 19606 (setting [1]) it was greater than 50 µM; in the assay with K. pneumoniae 700721 (Klebsiella pneumoniae, 700721) it was 19 µM (≈ 12.4 µg/mL); in the assay on S. aureus RN4220 (setting [2]), 19 µM (≈ 12.4 µg/mL); with E. coli 25922 (Escherichia coli, 25922, 16 h), 10 µM (≈ 6.51 µg/mL); in the assay on E. coli MC4100 (Escherichia coli, MC4100, 16 h), 10 µM (≈ 6.51 µg/mL). Further, in the assay with S. aureus MW2 (setting [3]), the MIC turned out to be 19 µM (≈ 12.4 µg/mL).

Take `CO[C@@H]1[C@@H](OC(N)=O)[C@@H](O)[C@H](Oc2ccc3c(O)c(NC(=O)c4ccc(F)c(Oc5ccccc5)c4)c(=O)oc3c2C)OC1(C)C` [Compound 254]: the MIC with E. cloacae 13047 (Enterobacter cloacae, 13047) was 79 µM (≈ 50.4 µg/mL); with A. baumannii 19606 (setting [1]) it was greater than 50 µM; in the assay with K. pneumoniae 700721 (Klebsiella pneumoniae, 700721), 20 µM (≈ 12.8 µg/mL); with S. aureus RN4220 (setting [2]) it was 10 µM (≈ 6.39 µg/mL); with E. coli 25922 (Escherichia coli, 25922, 16 h) it was 5 µM (≈ 3.19 µg/mL); in the assay on E. coli MC4100 (Escherichia coli, MC4100, 16 h) it was 2.4 µM (≈ 1.53 µg/mL). Moreover, in the assay with S. aureus MW2 (setting [3]), the MIC was found to be 10 µM (≈ 6.39 µg/mL).

For the compound `CO[C@@H]1[C@@H](O)[C@@H](OC(=O)NC(C)(C)C)[C@H](Oc2ccc3c(O)c(NC(=O)c4ccc(O)c(CC=C(C)C)c4)c(=O)oc3c2C)OC1(C)C` [Compound 106], the MIC with E. cloacae 13047 is reported as greater than 100 µM; in the assay with A. baumannii 19606, greater than 50 µM; in the assay on K. pneumoniae 700721, greater than 100 µM; in the assay with S. aureus RN4220 it was greater than 100 µM; with E. coli 25922 it was greater than 200 µM; in the assay with E. coli MC4100, greater than 200 µM. Also, the MIC in the assay with S. aureus MW2 was greater than 100 µM.

With `CO[C@@H]1[C@@H](OC(N)=O)[C@@H](O)[C@H](Oc2ccc3c(O)c(NC(=O)c4cccc(Oc5ccc(F)cc5)c4)c(=O)oc3c2C)OC1(C)C` [Compound 249], the MIC with E. cloacae 13047 (Enterobacter cloacae, 13047) was greater than 100 µM; in the assay on A. baumannii 19606 (setting [1]), greater than 50 µM; in the assay on K. pneumoniae 700721 (Klebsiella pneumoniae, 700721), 20 µM (≈ 12.8 µg/mL); with S. aureus RN4220 (setting [2]), 20 µM (≈ 12.8 µg/mL); in the assay with E. coli 25922 (Escherichia coli, 25922, 16 h), less than 1.56 µM; in the assay with E. coli MC4100 (Escherichia coli, MC4100, 16 h) it was 5 µM (≈ 3.19 µg/mL). In addition, in the assay with S. aureus MW2 (setting [3]), the MIC was determined as 20 µM (≈ 12.8 µg/mL).
